The values below come from publication PMC5530730, “^11C-Labeling of Aryl Ketones as Candidate Histamine Subtype-3 Receptor PET Radioligands through Pd(0)-Mediated ^11C-Carbonylative Coupling” (Molecules : A Journal of Synthetic Chemistry and Natural …, 2017).

One may read the Ki as the dissociation constant of the complex between target and ligand, obtained from inhibition or displacement.

One assay has as its target H3 receptors (Cavia porcellus, UniProt Q9JI35). Briefly: Competitive binding, displacement of [3H]α-methylhistamine, PDSP. Set-up: species or system guinea pig. On the technique in general: Displacement assays read how much labelled ligand stays bound in the presence of the test substance.
A further assay has as its target H2R (Homo sapiens, UniProt P25021). Briefly: Competitive binding, displacement of [3H]tiotidine, PDSP. The conditions noted are these: human recombinant receptors expressed in HEK293T cells, read-out: Affinity (Ki, nM) H2.
The next assay deals with H1R (Homo sapiens, UniProt P35367). Briefly: Competitive binding, displacement of [3H]pyrilamine, PDSP. The conditions noted are these: human recombinant receptors expressed in HEK293T cells, read-out: Affinity (Ki, nM) H1.
Sequence of H1R (P35367 whole entry): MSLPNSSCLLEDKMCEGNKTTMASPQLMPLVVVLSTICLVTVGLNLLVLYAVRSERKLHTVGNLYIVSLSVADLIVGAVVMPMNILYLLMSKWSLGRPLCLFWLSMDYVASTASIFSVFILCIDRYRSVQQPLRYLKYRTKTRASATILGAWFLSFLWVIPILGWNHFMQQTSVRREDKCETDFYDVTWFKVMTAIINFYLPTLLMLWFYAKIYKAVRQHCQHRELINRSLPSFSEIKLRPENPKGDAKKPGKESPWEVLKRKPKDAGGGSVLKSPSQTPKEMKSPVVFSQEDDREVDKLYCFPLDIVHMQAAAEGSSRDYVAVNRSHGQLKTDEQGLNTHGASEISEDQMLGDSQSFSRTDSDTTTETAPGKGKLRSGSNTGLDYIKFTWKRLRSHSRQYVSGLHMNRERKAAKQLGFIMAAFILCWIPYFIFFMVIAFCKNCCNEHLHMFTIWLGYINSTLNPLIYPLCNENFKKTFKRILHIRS
Assay [1] concerns the target cloned human H3 receptors. Set-up: method as in PMID 15634000. The conditions noted are these: [3H]α-methylhistamine; membranes of C6 cells expressing cloned human H3 receptors; read-out: Affinity (Ki, nM) H3 (lit); cited from earlier work.
Setting [2] is: [3H]α-methylhistamine, guinea pig cells expressing H3 receptors, NIMH PDSP, read-out: Affinity (Ki, nM) H3.

Like-named read-outs stand apart in the source and are kept apart here.

Sequence of H3 receptors (Q9JI35 whole entry): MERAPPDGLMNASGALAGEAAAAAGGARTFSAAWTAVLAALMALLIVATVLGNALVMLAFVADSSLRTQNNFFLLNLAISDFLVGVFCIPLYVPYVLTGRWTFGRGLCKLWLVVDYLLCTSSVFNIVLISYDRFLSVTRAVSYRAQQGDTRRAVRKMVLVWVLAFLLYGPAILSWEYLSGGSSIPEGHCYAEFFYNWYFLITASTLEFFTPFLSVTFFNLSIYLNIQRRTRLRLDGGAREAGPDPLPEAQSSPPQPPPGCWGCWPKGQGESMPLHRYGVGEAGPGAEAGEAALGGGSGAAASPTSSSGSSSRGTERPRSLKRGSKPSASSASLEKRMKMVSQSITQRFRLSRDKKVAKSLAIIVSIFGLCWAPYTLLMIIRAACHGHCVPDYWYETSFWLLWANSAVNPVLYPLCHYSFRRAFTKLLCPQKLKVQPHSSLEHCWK
Sequence of H2R (P25021 whole entry): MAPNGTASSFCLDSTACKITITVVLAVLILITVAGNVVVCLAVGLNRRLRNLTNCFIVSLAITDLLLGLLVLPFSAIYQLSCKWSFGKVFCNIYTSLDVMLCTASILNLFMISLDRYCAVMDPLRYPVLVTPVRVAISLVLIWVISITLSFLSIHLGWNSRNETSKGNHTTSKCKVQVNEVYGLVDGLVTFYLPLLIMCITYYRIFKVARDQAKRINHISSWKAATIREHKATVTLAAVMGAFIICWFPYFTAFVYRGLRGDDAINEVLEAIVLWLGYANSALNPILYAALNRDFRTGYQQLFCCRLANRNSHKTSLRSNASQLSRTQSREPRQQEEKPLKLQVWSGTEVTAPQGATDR

For the compound `C[C@@H]1CCCN1CCc1cc2cc(C(=O)c3ccc(F)cc3)ccc2o1` [Ligand 2], the inhibitory constant (Ki) on H3 receptors worked out at 4.2 nM; at H2R, 923 nM; on H1R, 7050 nM.

In the case of `C[C@@H]1CCCN1CCc1cc2cc(C(=O)c3cccc(F)c3)ccc2o1` [Ligand 3], the inhibition constant (Ki) at H3 receptors (setting [2]) was 4.9 nM; at H2R it was 1370 nM; at H1R, more than 10000 nM; in assay [1], 0.1 nM.

On to `C[C@@H]1CCCN1CCc1cc2cc(C(=O)c3ccc([N+](=O)[O-])cc3)ccc2o1` [Ligand 1], for which the Ki at H3 receptors (setting [2]) came to 2.1 nM; at H2R, 706 nM; on H1R, 1030 nM.

Turning to `C[C@@H]1CCCN1CCc1cc2cc(C(=O)c3cc(F)cc(F)c3)ccc2o1` [Ligand 4, (R)-(3,5-Difluorophenyl)(2-(2-(2-methylpyrrolidin-1-yl)ethyl)benzofuran-5-yl)methanone], the Ki on H3 receptors (setting [2]) was 2.9 nM; at H2R, 630 nM; on H1R it was more than 10000 nM; in assay [1], 0.09 nM.
